Results taken from PubChem BioAssay (NCI).
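Following 48 hours of exposure in 96-well plates, responses at five concentrations were used to interpolate endpoints linearly. Definition used: TGI = concentration required for complete inhibition of growth.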

The compounds below were run on DLD-1 colon (assay: NCI tumour cell line growth inhibition, 48 h).
For `CCCCCCCCC[C@@H]1CC(=O)OCC2OC(O[C@H](CCCCCCCCC)CC(=O)OCC3OC(O[C@H](CCCCCCCCC)CC(=O)OCC4OC(O1)C(O)C(O)C4O)C(O)C(O)C3O)C(O)C(O)C2O` (stereo partly drawn), the TGI was 28.2 µM. With `COc1ccc(-c2onc(-c3ccc([N+](=O)[O-])cc3)c2C2=NCCN2)cc1` the TGI was > 100 µM. For `Cc1cc(Cl)ccc1NC(=O)CCCC(=O)C1CCCC1=O` (stereo not drawn), the TGI was > 100 µM. With `COc1ccc(NC(=O)C(=O)C(C(=O)c2ccccc2)C2OC(=O)c3ccccc32)c([N+](=O)[O-])c1` (stereo not drawn) the TGI was > 100 µM. `O=C(Nc1ccc(Cl)cc1)C(=O)C(C(=O)c1ccccc1-c1ccccc1)C1OC(=O)c2ccccc21` (stereo not drawn) was tested, and the TGI was > 100 µM.

Each compound was assayed on OVCAR-5 ovarian (assay: NCI tumour cell line growth inhibition, 48 h).
In the case of `COc1c2nc(CCl)[nH]c(=O)c2c(OC)c2nc(CCl)[nH]c(=O)c12`, the TGI is reported as > 100 µM. `COc1ccccc1N1C(=O)/C(=C/c2ccc(N(CCC#N)CCC#N)cc2C)N=C1c1cc([N+](=O)[O-])ccc1Cl` was tested, and the TGI was > 100 µM. In the case of `CCCCCCCCC[C@@H]1CC(=O)OCC2OC(O[C@H](CCCCCCCCC)CC(=O)OCC3OC(O[C@H](CCCCCCCCC)CC(=O)OCC4OC(O1)C(O)C(O)C4O)C(O)C(O)C3O)C(O)C(O)C2O` (stereo partly drawn), the TGI is reported as 22.5 µM. In the case of `COc1ccc(-c2onc(-c3ccc([N+](=O)[O-])cc3)c2C2=NCCN2)cc1`, the TGI is reported as > 100 µM. `Cc1cc(Cl)ccc1NC(=O)CCCC(=O)C1CCCC1=O` (stereo not drawn) was tested, and the TGI was > 100 µM. For `COc1ccc(NC(=O)C(=O)C(C(=O)c2ccccc2)C2OC(=O)c3ccccc32)c([N+](=O)[O-])c1` (stereo not drawn), the TGI was > 100 µM. `O=C(Nc1ccc(Cl)cc1)C(=O)C(C(=O)c1ccccc1-c1ccccc1)C1OC(=O)c2ccccc21` (stereo not drawn) showed a TGI of 92.4 µM.

Each compound was assayed on HT29 colon (assay: NCI tumour cell line growth inhibition, 48 h).
With `COc1c2nc(CCl)[nH]c(=O)c2c(OC)c2nc(CCl)[nH]c(=O)c12` the TGI was > 100 µM. For `COc1ccccc1N1C(=O)/C(=C/c2ccc(N(CCC#N)CCC#N)cc2C)N=C1c1cc([N+](=O)[O-])ccc1Cl`, the TGI was > 100 µM. `CCCCCCCCC[C@@H]1CC(=O)OCC2OC(O[C@H](CCCCCCCCC)CC(=O)OCC3OC(O[C@H](CCCCCCCCC)CC(=O)OCC4OC(O1)C(O)C(O)C4O)C(O)C(O)C3O)C(O)C(O)C2O` (stereo partly drawn) gave a TGI of 24.3 µM. In the case of `COc1ccc(-c2onc(-c3ccc([N+](=O)[O-])cc3)c2C2=NCCN2)cc1`, the TGI is reported as > 100 µM. For `Cc1cc(Cl)ccc1NC(=O)CCCC(=O)C1CCCC1=O` (stereo not drawn), the TGI was > 100 µM. With `COc1ccc(NC(=O)C(=O)C(C(=O)c2ccccc2)C2OC(=O)c3ccccc32)c([N+](=O)[O-])c1` (stereo not drawn) the TGI was > 100 µM. `O=C(Nc1ccc(Cl)cc1)C(=O)C(C(=O)c1ccccc1-c1ccccc1)C1OC(=O)c2ccccc21` (stereo not drawn) was tested, and the TGI was 58.6 µM.

The compounds below were run on HL-60(TB) leukemia (assay: NCI tumour cell line growth inhibition, 48 h).
For `COc1c2nc(CCl)[nH]c(=O)c2c(OC)c2nc(CCl)[nH]c(=O)c12`, the TGI was > 100 µM. In the case of `COc1ccccc1N1C(=O)/C(=C/c2ccc(N(CCC#N)CCC#N)cc2C)N=C1c1cc([N+](=O)[O-])ccc1Cl`, the TGI is reported as > 100 µM. With `CCCCCCCCC[C@@H]1CC(=O)OCC2OC(O[C@H](CCCCCCCCC)CC(=O)OCC3OC(O[C@H](CCCCCCCCC)CC(=O)OCC4OC(O1)C(O)C(O)C4O)C(O)C(O)C3O)C(O)C(O)C2O` (stereo partly drawn) the TGI was 31.8 µM. For `COc1ccc(-c2onc(-c3ccc([N+](=O)[O-])cc3)c2C2=NCCN2)cc1`, the TGI was > 100 µM. `Cc1cc(Cl)ccc1NC(=O)CCCC(=O)C1CCCC1=O` (stereo not drawn) was tested, and the TGI was > 100 µM. In the case of `COc1ccc(NC(=O)C(=O)C(C(=O)c2ccccc2)C2OC(=O)c3ccccc32)c([N+](=O)[O-])c1` (stereo not drawn), the TGI is reported as > 100 µM. In the case of `O=C(Nc1ccc(Cl)cc1)C(=O)C(C(=O)c1ccccc1-c1ccccc1)C1OC(=O)c2ccccc21` (stereo not drawn), the TGI is reported as 53.5 µM.

The compounds below were run on KM20L2 colon (assay: NCI tumour cell line growth inhibition, 48 h).
In the case of `COc1c2nc(CCl)[nH]c(=O)c2c(OC)c2nc(CCl)[nH]c(=O)c12`, the TGI is reported as > 100 µM. For `COc1ccccc1N1C(=O)/C(=C/c2ccc(N(CCC#N)CCC#N)cc2C)N=C1c1cc([N+](=O)[O-])ccc1Cl`, the TGI was > 100 µM. In the case of `CCCCCCCCC[C@@H]1CC(=O)OCC2OC(O[C@H](CCCCCCCCC)CC(=O)OCC3OC(O[C@H](CCCCCCCCC)CC(=O)OCC4OC(O1)C(O)C(O)C4O)C(O)C(O)C3O)C(O)C(O)C2O` (stereo partly drawn), the TGI is reported as 19.7 µM. `COc1ccc(-c2onc(-c3ccc([N+](=O)[O-])cc3)c2C2=NCCN2)cc1` was tested, and the TGI was > 100 µM. For `Cc1cc(Cl)ccc1NC(=O)CCCC(=O)C1CCCC1=O` (stereo not drawn), the TGI was > 100 µM. `COc1ccc(NC(=O)C(=O)C(C(=O)c2ccccc2)C2OC(=O)c3ccccc32)c([N+](=O)[O-])c1` (stereo not drawn) was tested, and the TGI was > 100 µM. In the case of `O=C(Nc1ccc(Cl)cc1)C(=O)C(C(=O)c1ccccc1-c1ccccc1)C1OC(=O)c2ccccc21` (stereo not drawn), the TGI is reported as 55.6 µM.

Each compound was assayed on SK-MEL-2 melanoma (assay: NCI tumour cell line growth inhibition, 48 h).
For `COc1c2nc(CCl)[nH]c(=O)c2c(OC)c2nc(CCl)[nH]c(=O)c12`, the TGI was > 100 µM. For `COc1ccccc1N1C(=O)/C(=C/c2ccc(N(CCC#N)CCC#N)cc2C)N=C1c1cc([N+](=O)[O-])ccc1Cl`, the TGI was > 100 µM. `CCCCCCCCC[C@@H]1CC(=O)OCC2OC(O[C@H](CCCCCCCCC)CC(=O)OCC3OC(O[C@H](CCCCCCCCC)CC(=O)OCC4OC(O1)C(O)C(O)C4O)C(O)C(O)C3O)C(O)C(O)C2O` (stereo partly drawn) was tested, and the TGI was 22.3 µM. In the case of `COc1ccc(-c2onc(-c3ccc([N+](=O)[O-])cc3)c2C2=NCCN2)cc1`, the TGI is reported as > 100 µM. For `Cc1cc(Cl)ccc1NC(=O)CCCC(=O)C1CCCC1=O` (stereo not drawn), the TGI was > 100 µM. With `COc1ccc(NC(=O)C(=O)C(C(=O)c2ccccc2)C2OC(=O)c3ccccc32)c([N+](=O)[O-])c1` (stereo not drawn) the TGI was > 100 µM. `O=C(Nc1ccc(Cl)cc1)C(=O)C(C(=O)c1ccccc1-c1ccccc1)C1OC(=O)c2ccccc21` (stereo not drawn) was tested, and the TGI was 55.5 µM.

Each compound was assayed on A498 renal (assay: NCI tumour cell line growth inhibition, 48 h).
For `COc1ccccc1N1C(=O)/C(=C/c2ccc(N(CCC#N)CCC#N)cc2C)N=C1c1cc([N+](=O)[O-])ccc1Cl`, the TGI was > 100 µM. `CCCCCCCCC[C@@H]1CC(=O)OCC2OC(O[C@H](CCCCCCCCC)CC(=O)OCC3OC(O[C@H](CCCCCCCCC)CC(=O)OCC4OC(O1)C(O)C(O)C4O)C(O)C(O)C3O)C(O)C(O)C2O` (stereo partly drawn) was tested, and the TGI was 27.9 µM. `Cc1cc(Cl)ccc1NC(=O)CCCC(=O)C1CCCC1=O` (stereo not drawn) was tested, and the TGI was > 100 µM. `COc1ccc(NC(=O)C(=O)C(C(=O)c2ccccc2)C2OC(=O)c3ccccc32)c([N+](=O)[O-])c1` (stereo not drawn) was tested, and the TGI was > 100 µM. For `O=C(Nc1ccc(Cl)cc1)C(=O)C(C(=O)c1ccccc1-c1ccccc1)C1OC(=O)c2ccccc21` (stereo not drawn), the TGI was 38.7 µM.

These compounds were tested on K-562 leukemia (assay: NCI tumour cell line growth inhibition, 48 h).
With `COc1c2nc(CCl)[nH]c(=O)c2c(OC)c2nc(CCl)[nH]c(=O)c12` the TGI was > 100 µM. `COc1ccccc1N1C(=O)/C(=C/c2ccc(N(CCC#N)CCC#N)cc2C)N=C1c1cc([N+](=O)[O-])ccc1Cl` was tested, and the TGI was > 100 µM. Compound `CCCCCCCCC[C@@H]1CC(=O)OCC2OC(O[C@H](CCCCCCCCC)CC(=O)OCC3OC(O[C@H](CCCCCCCCC)CC(=O)OCC4OC(O1)C(O)C(O)C4O)C(O)C(O)C3O)C(O)C(O)C2O` (stereo partly drawn) has a TGI of 15.1 µM.
